Reference: patent publication US6521651B1, “Pharmaceutical composition” (Abbott Laboratories, priority 1996, dated 2003)

Assay: Oral bioavailability studies in dogs
Assay type: in vivo
Conditions: both sexes, beagle, dog, plasma; unformulated solid in a capsule dosage form, 5 mg/kg oral dose in dogs
Method: These capsules were administered to fasted dogs with 10 ml of water.
These capsules were administered to non-fasted dogs with ten milliliter of water.
These capsules were administered to fed dogs with ten milliliter of water.
Dogs (beagle dogs, mixed sexes, weighing 7-14 kg) were fasted overnight prior to dosing, but were permitted water ad libitum. Each dog received a 100 μg/kg subcutaneous dose of histamine approximately 30 minutes prior to dosing. Each dog received a single solid dosage form corresponding to a 5 mg/kg dose of the drug. The dose was followed by approximately 10 milliliters of water. Blood samples were obtained from each animal prior to dosing and 0.25, 0.5, 1.0, 1.5, 2, 3, 4, 6, 8, 10 and 12 hours after drug administration. […] Concentrations of parent drug were determined by reverse phase HPLC with low wavelength UV detection following liquid-liquid extraction of the plasma samples. The parent drug area under the curve was calculated by the trapezoidal method over the time course of the study. The absolute bioavailability of each test composition was calculated by comparing the area under the curve after oral dosing to that obtained from a single intravenous dose. Each capsule or capsule composition was evaluated in a group containing at least six dogs; the values reported are averages for each group of dogs.

bioavailability: < 2%
SMILES: CC(C)c1nc(CN(C)C(=O)N[C@H](C(=O)N[C@@H](Cc2ccccc2)C[C@H](O)[C@H](Cc2ccccc2)NC(=O)OCc2cncs2)C(C)C)cs1 [compound III, (2S,3S,5S)-5-(N-(N-((N-Methyl-N-((2-isopropyl-4-thiazolyl)methyl)-amino)carbonyl)valinyl)amino)-2-(N-((5-thiazolyl)methoxycarbonyl)amino)-1,6-diphenyl-3-hydroxyhexane]
